Assay results as given in PMC8750527 (Cancers, 2021).

Test system: HD-MB03 intracranial tumors
Experimental: HD-MB03-Luc spheroids were stereotaxically implanted into the brains of 9-week-old Rj:NMRI-Foxn1 nude (nu/nu) female mice (Janvier Labs, Le Genest-Saint-Isle, France). Briefly, MB spheroids were generated with 2500 cells grown for 48 h in ultralow-adhesion spheroid 96-well plates (Corning, Corning, NY, USA) and three spheroids per mouse were implanted into the left cerebellar hemisphere (2 mm posterior, 1.5 mm left of the lambda point and 2.5 mm deep) using a Hamilton syringe fitted with a needle (Hamilton, Bonaduz, Switzerland) and following the procedure already described. […] Oral gavage with a vehicle solution was used as the control. Mouse survival was based on the presence of neuropathological symptoms including gait defects and a loss of weight over 10% as endpoints. A minimum of five mice per group was chosen to yield sufficient statistical power (p < 0.05, one-way ANOVA). These experiments were carried out in strict accordance with the recommendations in the Guide for the Care and Use of Laboratory Animals. Our experiments were approved by Direction de l’Action Sanitaire et Sociale of the Principality of Monaco and the ethics committee of Centre Scientifique de Monaco.
Tumor samples were recovered from the animals and embedded in the OCT compound according to the manufacturer’s protocol (Thermo Fisher Scientific Inc., Waltham, MA, USA). After that, 5 µm thin sections were prepared with a cryostat (Leica Microsystems, Wetzlar, Germany). Incubation was carried out with the following antibodies diluted at 1:1000 in TBS supplemented with 1% horse serum and 1% BSA for 20 min at room temperature: anti-Ki67 (cat. number ab16667, Abcam, Cambridge, UK), anti-CD31 (cat. number 550274, BD Biosciences, Frankton Lake, NJ, USA) or anti-αSMA (cat. number A2547, Merck Millipore, Burlington, MA, USA). The preparations were then washed with TBS–0.025% Triton, incubated with anti-rabbit Alexa488 and anti-mouse Alex-555-coupled secondary antibodies (Cell Signaling Technology, Danvers, MA, USA), washed with TBS–0.025% Triton, and the nuclei were counterstained with Hoechst33342 (Thermo Fisher Scientific, Waltham, MA, USA). Fluorescence images of the cells were taken with a DMI400 inverted microscope equipped with a 40× objective (Leica Microsystemes, Nanterre, France) and a Zyla 5.5 camera (Andor Technologies, Belfast, UK) powered by the Micromanager software. At least one cross-section of nonoverlapping images of each tumor was acquired. All the images were then quantified with the CellProfiler 3.0 software.

## CNC(=O)c1ccccc1Sc1ccc2c(/C=C/c3ccccn3)n[nH]c2c1 [Axitinib, axitinib]
Metronomic oral treatment
  number of CD31-positive and αSMA-positive double-stained structures (vessels covered with pericytes): decreased the number
oral, five times a week, axitinib 50 mg/kg, combination 25 + 15 mg/kg
  intracranial tumor growth (BLI): reduced tumor growth
oral, five times a week, axitinib 50 mg/kg, etoposide 30 mg/kg, combination 25 + 15 mg/kg
  survival of mice with intracranial tumors: increased survival of the animals
